biological target: T1, Dipeptidyl-Peptidase IV (DPPIV) (Homo sapiens, UniProt P27487); assay: fluorometric DPPIV activity assay kit, % inhibition at […]; type: biochemical
T1 construct: gene DPP4
T1 sequence (P27487 whole entry): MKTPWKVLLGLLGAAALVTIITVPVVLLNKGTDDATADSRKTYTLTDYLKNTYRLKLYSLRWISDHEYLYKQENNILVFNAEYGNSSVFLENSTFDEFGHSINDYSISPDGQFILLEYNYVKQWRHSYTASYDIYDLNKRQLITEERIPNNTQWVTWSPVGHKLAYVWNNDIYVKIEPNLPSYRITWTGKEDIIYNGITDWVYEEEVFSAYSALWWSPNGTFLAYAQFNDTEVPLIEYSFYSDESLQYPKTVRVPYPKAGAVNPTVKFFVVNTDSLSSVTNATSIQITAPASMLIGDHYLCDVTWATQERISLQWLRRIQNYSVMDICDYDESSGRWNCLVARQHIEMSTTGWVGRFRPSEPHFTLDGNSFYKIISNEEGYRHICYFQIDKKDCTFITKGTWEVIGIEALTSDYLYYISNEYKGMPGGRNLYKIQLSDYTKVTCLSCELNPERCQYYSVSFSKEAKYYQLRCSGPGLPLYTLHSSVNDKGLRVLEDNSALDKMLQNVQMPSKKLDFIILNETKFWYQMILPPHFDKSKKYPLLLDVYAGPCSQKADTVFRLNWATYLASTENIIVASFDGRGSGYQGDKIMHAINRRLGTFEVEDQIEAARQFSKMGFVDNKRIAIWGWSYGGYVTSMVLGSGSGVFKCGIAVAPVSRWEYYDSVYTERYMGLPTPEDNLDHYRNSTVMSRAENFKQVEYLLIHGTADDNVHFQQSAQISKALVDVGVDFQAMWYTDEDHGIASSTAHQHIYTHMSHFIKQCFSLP

| Compound | inhibition at 100 µM |
| --- | --- |
| CC(=O)NC(=N)NC(=O)c1ccccc1 [2k, N-(N-Acetylcarbamimidoyl)benzamide] | 79.3% |
| N=C(NC(=O)c1ccccc1)NC(=O)c1ccccc1 [2n, N,N′-(Iminomethylene)dibenzamide] | 82.7% |
| COc1ccc(-c2nc(=O)c3ccccc3n2C)cc1 [4f, 2-(4-Methoxyphenyl)-1-methylquinazolin-4(1H)-one] | 82.4% |
| COc1ccc(-c2nc(=O)c3ccccc3[nH]2)cc1 [4h, 2-(4-Methoxyphenyl) quinazolin-4(1H)-one] | 79.1% |
| O=c1nc(-c2ccc(C(F)(F)F)cc2)[nH]c2ccccc12 [4i, 2-(4-(Trifluoromethyl)phenyl)quinazolin-4(1H)-one] | 72.5% |

— article PMC8621334, “Ammonium Formate-Pd/C as a New Reducing System for 1,2,4-Oxadiazoles. Synthesis of Guanidine Derivatives and Reductive Rearrangement to Quinazolin-4-Ones with Potential Anti-Diabetic Activity” (International Journal of Molecular Sciences, 2021)
